Source: patent US20050049174A1, “Method and substance for facilitating weaning, reducing morbidity and reducing mortality in cardiac surgeries involving extra-corporal circulation” (priority 2003, published 2005)
“Also recorded” adds a separate entry of the source. Like-named read-outs stand apart in the source and are kept apart here. Marks after values point to notes of the source that are not given here.

Experiments:
[1] = test system: cardiac surgery patients; conditions: cited from earlier work; for Result: hemodynamic effects, amrinone vs milrinone: n 44, elective cardiac surgery, bolus amrinone 0.75 mg/kg or milrinone 25 μg/kg
[2] = test system: porcine subjects undergoing cardiopulmonary bypass
[3] = test system: patients with pulmonary hypertension; conditions: inhaled milrinone; cited from earlier work
[4] = test system: coronary care unit patients hospitalized for an exacerbation of chronic heart failure; conditions: cited from earlier work
[5] = test system: person in cardiogenic shock; assay: inhaled milrinone in a person in cardiogenic shock (echocardiographic and hemodynamic monitoring); type: in vivo, human; conditions: 5 mg milrinone through inhalation
Text: Finally, the cardiac index increased from 1.8 to 2.8 L.min/m^2.

[6] = test system: rings of porcine pulmonary artery with endothelium; assay: vascular reactivity studies in organ chambers after cardiopulmonary bypass; type: in vivo, Landrace swine; conditions: for KCL: amplitude of the contraction to KCl (60 mmol/L) / Dose PE: concentration of PE used to obtain 50% of contraction to KCl: mean +/- SEM
Method: After 60 minutes of reperfusion, swine were sacrificed and pulmonary arteries harvested. After contraction to phenylephrine, pulmonary arteries endothelium-dependent relaxations to bradykinin (Gq coupled) and acetylcholine (Gi coupled) were studied in standard organ chamber experiments.
Less than 10 minutes after “en bloc” excision, the heart was removed and the primary pulmonary artery was dissected. Branches of second degree pulmonary arteries were isolated and dissected free of connective and adventitial tissue and divided into rings (4 mm wide; 16 rings per animal). All rings were placed in organ chambers (Emka technologies Inc, Paris, France) filled with 20 mL modified Krebs-bicarbonate solution continuously heated at 37° C. and oxygenated with a carbogen mixture (95% O2 and 5% CO2). The rings were suspended between 2 metal stirrups with the upper 1 connected to an isometric force transducer connected to a signal amplifier and then allowed to stabilize for 30 minutes. Data were collected with a biological signal data acquisition software (IOX 1.700; Emka technologies Inc, Paris, France). Each arterial ring was stretched to the optimal point of its active length-tension curve (3.5 g) as determined by measuring the contraction to potassium chloride (KCl) 60 mmol/L at different levels of stretch (data not shown). The maximal contraction of rings was then obtained with addition of potassium chloride (KCl 60 mmol/L). After obtention of a plateau, all baths were washed twice with modified Krebs bicarbonate solution and indomethacin ([…]; to exclude production of endogenous prostanoids) was added in each bath. After 45 minutes of stabilisation, phenylephrine (range 2 {acute over} 10-7 mol/L to 3 {acute over} 10-6 mol/L) was added to obtain a contraction averaging 50% of the maximal contraction to KCl.
The NO-mediated relaxation pathway was studied by constructing concentration-response curves to acetylcholine (ACh, 10-9 to 10-5 mol/L; an agonist of M2 receptors coupled to Gi-proteins) and to bradykinin (BK, 10-12 to 10—6 mol/L; an agonist of B2 receptors coupled to Gq-proteins).
At the end of the experiment, endothelium-independent relaxations were studied with the use of 10-5 mol/L sodium nitroprusside (SNP), a nitric oxide donor
All values are expressed as the mean±standard error of the mean (SEM). Contractions to phenylephrine are expressed as a percentage of the maximal contraction to KCl (60 mmol/L). Relaxations are expressed as the percentage of the maximal contraction to phenylephrine for each ring. Two-way repeated analysis of variance (ANOVA) were performed to compare each point of the concentration-response curves between control rings and CPB rings. Student's t test for paired/unpaired observations was used for the comparison of the pulmonary artery pressures and the intravascular cAMP content. Statistical analysis was performed with the computer software S.A.S (Instr Inc. Cary, N.C., USA). A P-value less than 0.05 was considered statistically significant.

[7] = intravenous; animal studies; cited from earlier work
[8] = test system: person operated under cardiopulmonary bypass; assay: inhaled prostacyclin at weaning from bypass in a person; type: in vivo, human; conditions: weaned with inhaled prostacyclin (75 μg)
Method: In another case, a person was operated for a third time under cardiopulmonary bypass. […] Pre-operatively, they had abnormal right ventricular diastolic function with a lower systolic or S wave on the hepatic venous Doppler signal. After bypass (duration 157 min), they were weaned with inhaled prostacyclin (75 μg) and they left the operating room with noradrenaline at 2.5 μg/min and nitroglycerine at 0.4 μg/kg/min.

[9] = test system: heart transplant candidate; conditions: inhaled prostacyclin group; cited from earlier work
[10] = test system: patient, mitral valve and tricuspid valve repair; assay: inhaled prostacyclin prior to extra-corporal circulation in a patient; type: in vivo, human
Text: This is to be contrasted with changes observed in Doppler hepatic venous flow after inhaled prostacyclin in a patient scheduled to undergo mitral valve and tricuspid valve repair. […] This was associated with a reduction in mean pulmonary artery pressure from 36 to 29 mmHg, pulmonary vascular resistance index from 589 to 267 dynes.s/cm^5/m^2 and an increase in cardiac index from 1.9 to 2.4 L/min/m^2. Heart rate and mean arterial pressure decreased respectively from 63 to 52 beats/min and from 76 to 64 mmHg.

[11] = n 120, low CO after cardiac surgery

[N]=O [NO, nitric oxide]
Result: right ventricular ejection fraction ([1]; n 45, pulmonary hypertension, Group 3 40 ppm NO compared to group 1 (milrinone) and 2 (20 ppm NO)): Group 3 (40 ppm)higher right

Nc1cc(-c2ccncc2)c[nH]c1=O [amrinone]
Result: hemodynamic effects, amrinone vs milrinone [1]: produced similar

CC(CCc1ccc(O)cc1)NCCc1ccc(O)c(O)c1 (stereo not drawn) [dobutamine]
Result: overall comparison milrinone and dobutamine [1, 11]: comparable | Result: increases in cardiac index ([1]; n 120, low CO after cardiac surgery, dobutamine 10 to 20 μg/kg/min vs milrinone): group D had greater

Cc1[nH]c(=O)c(C#N)cc1-c1ccncc1 [milrinone]
systemic vascular resistance after bolus ([2]; in vivo): did not fall | heart rate ([2]; in vivo, iv): increased | systemic vascular resistance after bolus ([2]; in vivo, iv): important decrease | heart rate ([2]; inhaled milrinone vs CPB, at 15, 45 and 75 minutes per CPB and 30 and 60 minutes post CPB, p<0.05, FIG. 6): significantly lower | mean arterial pressure following administration of the bolus ([2]; inhaled milrinone, bolus of 60-90 mg/kg via nebulizer during 15 minutes preceding CPB, p<0.05, FIG. 2): significant decrease | pulmonary vascular resistance [3]: reduce pulmonary vascular resistance; also recorded: lowered pulmonary vascular resistances | median number of days hospitalized for cardiovascular causes within 60 days ([4]; intravenous milrinone vs placebo): no difference | in-hospital mortality ([4]; intravenous milrinone, vs 2.3% placebo, P=0.19): 3.8% | 60-day mortality ([4]; intravenous milrinone, vs 8.9% placebo, P=0.41): 10.3% | Result: wean from bypass ([1]; n 32, LVEF ≦ 35%, PCWP ≧ 20 mmHg pre-bypass, bolus 50 ug/kg, perfusion 0.5 ug/kg/min, vs 5/15 placebo): All patients with milrinone | Result: hemodynamic effects, amrinone vs milrinone [1]: produced similar | Result: overall comparison milrinone and dobutamine [1, 11]: comparable | Result: decreases in mean pulmonary capillary wedge pressure ([1]; n 120, low CO after cardiac surgery, milrinone 50 μg/kg and perfusion 0.5 μg/kg/min vs dobutamine): Group M had greater | right atrial pressure (RAP) after administration ([5]; decrease from 17): 7 mm Hg | mean pulmonary arterial pressure after administration ([5]; decrease from 33): 24 mm Hg | mean arterial pressure after administration ([5]; decrease from 92): 77 mm Hg | heart rate after administration ([5]; increase from 72): 84 beats/minutes | KCL: amplitude of the contraction to KCl (60 mmol/L) ([6]; Mil INH group): 4.8 +/− 0.28 | Dose PE: concentration of PE used to obtain 50% of contraction to KCl ([6]; Mil INH group, p<0.01 vs intravenous milrinone, p<0.05 vs control): greater | Dose PE: concentration of PE used to obtain 50% of contraction to KCl ([6]; Mil INH group, p<0.01 vs intravenous milrinone, p<0.05 vs control, listed as Mil INH): 8.3 +/− 0.93*,** | Dose PE: concentration of PE used to obtain 50% of contraction to KCl ([6]; Mil IV group): 4.1 +/− 0.3 | KCL: amplitude of the contraction to KCl (60 mmol/L) ([6]; Mil IV group): 4.0 +/− 0.3 | endothelium-dependent relaxation to BK ([6]; inhaled milrinone compared to all other groups, P<0.05, FIG. 10): increased relaxation; also recorded: preventive effect | CPB-induced decrease of endothelium-dependent relaxation to ACh ([6]; inhaled milrinone prior to CPB, FIG. 9): completely reversed; also recorded: preventive effect | endothelium-dependent relaxation to BK: preventive effect on endothelial function ([6]; intravenous milrinone, FIG. 10): not seen

CCCCC[C@H](O)/C=C/[C@@H]1[C@H]2C/C(=C/CCCC(=O)O)O[C@H]2C[C@H]1O [prostacyclin]
half-life [7]: 2 to 3 min | vasoactive drugs in the post-operative period [8]: No vasoactive drugs were required | mean arterial pressure after bypass ([8]; decreased from 78): 67 mmHg | cardiac index after bypass ([8]; increase from 2.3): 3.3 L/min/m^2 | heart rate after bypass ([8]; increased from 66): 85 beats/min | pulmonary vascular resistance indexed after bypass ([8]; reduction from 242): 121 dynes.s/cm^5/m^2 | hepatic venous flow signal ([8]; right ventricular diastolic waveform still abnormal): did not change significantly | cardiac output increased by [9]: 11% | vasoactive drugs used post-operatively [10]: no vasoactive drugs used | difficult separation from bypass ([10]; cardiopulmonary bypass time of 138 min): no difficult separation from bypass | heart rate ([10]; decreased from 63): 52 beats/min | mean arterial pressure ([10]; decreased from 76): 64 mmHg | cardiac index ([10]; increase from 1.9): 2.4 L/min/m^2 | Doppler hepatic venous flow systolic or S wave ([10]; negative value before, within 18 minutes): became positive and less pronounced | mean pulmonary artery pressure ([10]; reduction from 36): 29 mmHg | pulmonary vascular resistance index ([10]; reduction from 589): 267 dynes.s/cm^5/m^2
